From US6696076B2, “Immune response modifier compounds for treatment of TH2 mediated and related diseases” (3M Innovative Properties Company, priority 1996, dated 2004)

How the values were obtained:
[1] = test system: ovalbumin-induced eosinophilia in the lung; test: Ovalbumin-induced lung eosinophilia in the guinea pig (EPO assay); format: in vivo; conditions: for maximum inhibition of ovalbumin-induced eosinophilia: maximum over doses and routes tested
[2] = test system: sephadex-induced eosinophilia in the lung; test: Sephadex-induced lung eosinophilia in rats (EPO assay); format: in vivo; conditions: rat; for dose capable of inhibiting sephadex-induced eosinophilia in the lung: 60 minutes prior to challenge; for maximum inhibition of sephadex-induced eosinophilia: maximum over doses and routes tested
[3] = test system: antigen induced IL-5 production; test: Antigen induced IL-5 production in vivo (serum, OVA-challenged sensitized mice); set-up: species or system mouse; conditions: for −24 hr IL-5: 24 hrs before OVA challenge; for −24 hr IL-5 / 0 hr IL-5: serum 7 hrs after OVA; for 0 hr IL-5: same time as OVA challenge
Description: CFW male mice were sensitized with OVA as described above. 14 days after the last sensitization animals were challenged with 100 μg OVA sc. […] Serum was collected 7 hrs after OVA and analyzed for IL-5 and IFN-γ concentrations. Results are expressed as the mean cytokine concentration ±SEM.

[4] = test system: IL-5 production in spleen cells from OVA-sensitized CFW mice; test: Inhibition of mouse spleen cell production of IL-5 (OVA-stimulated cultures, ELISA); format: cell-based; conditions: for IL-5 Concentration: 96 hr
[5] = test system: antigen-induced eosinophilia in the lung; test: Antigen-induced lung eosinophilia after aerosol OVA challenge (EPO in lung); format: in vivo, mouse; conditions: 1 mg/kg, 15 minutes prior to antigen challenge, mice
Description: Concentrations of IL-4 were reduced in the BAL of these mice by 43% when compared to animals receiving antigen alone. […] Fourteen days after boosting animals were dosed by nebulization for 30 minutes using a 1% OVA solution. This was repeated on days 17 and 20. Twenty-four hours after the final nebulized dose animals were sacrificed and bronchoalveolar lavage (BAL) was performed using 1.0 ml of PBS containing 1% fetal bovine serum. BAL was stored at −70° C. before analyzed. Lungs were then removed and placed in 0.5% cetrimide, 0.05 M KH2PO4 for homogenization of 4×30 seconds with 30 second cooling intervals between on ice. Centrifugation was then done at 1300 rpm (400×g) for 30 minutes at 4C. Pellet was collected and resuspended in 4 ml 0.5% cetrimide, 0.05 M KH2PO4 buffer. Samples were then frozen until sonication and the EPO assessment. This was followed by sonication for 3×15 seconds with 30 second intervals on ice. […] To start the reaction, 1 ul of 30% hydrogen peroxide was added to the cuvette. The optical density reading was measured spectrophotometrically over a 4 minute time interval at 490 nm in a Beckman Du-64 spectrophotometer.

[6] = test system: IL-4; test: Antigen-induced IL-4 in BAL after aerosol OVA challenge (ELISA); format: in vivo, mouse; conditions: 1 mg/kg, 15 minutes prior to antigen challenge, mice
Description: (§1) Concentrations of IL-4 were reduced in the BAL of these mice by 43% when compared to animals receiving antigen alone. […] Fourteen days after boosting animals were dosed by nebulization for 30 minutes using a 1% OVA solution. This was repeated on days 17 and 20. Twenty-four hours after the final nebulized dose animals were sacrificed and bronchoalveolar lavage (BAL) was performed using 1.0 ml of PBS containing 1% fetal bovine serum. BAL was stored at −70° C. before analyzed. Lungs were then removed and placed in 0.5% cetrimide, 0.05 M KH2PO4 for homogenization of 4×30 seconds with 30 second cooling intervals between on ice. Centrifugation was then done at 1300 rpm (400×g) for 30 minutes at 4C. Pellet was collected and resuspended in 4 ml 0.5% cetrimide, 0.05 M KH2PO4 buffer. Samples were then frozen until sonication and the EPO assessment. This was followed by sonication for 3×15 seconds with 30 second intervals on ice. BAL were analyzed by ELISA (Endogen) for IL-5 and IL-4 concentrations with data being presented as the average from 11 animals ±SEM. […] IL-5 concentration is in pg/ml.

[7] = test system: IL-5; test: Antigen-induced IL-5 in BAL after aerosol OVA challenge (ELISA); format: in vivo, mouse; conditions: 1 mg/kg, 15 minutes prior to antigen challenge, mice
Description: as §1

[8] = aerosol inhalation, 0.003 mg/kg
[9] = intraperitoneal administration, 0.003 mg/kg
[10] = intraperitoneal administration, 0.01 mg/kg
[11] = intraperitoneal administration, 0.03 mg/kg
[12] = intraperitoneal administration, 3.0 mg/kg
[13] = intratracheal instillation, 0.03 mg/kg
[14] = intratracheal instillation, 0.1 mg/kg
[15] = intratracheal instillation, 0.3 mg/kg
[16] = intratracheal instillation, 0.7 mg/kg
[17] = oral administration, 30.0 mg/kg
[18] = oral administration, 0.001 mg/kg
[19] = oral administration, 0.01 mg/kg

## Cc1nc2c(N)nc3ccccc3c2n1CC(C)(C)O [Cmpd 1, 4-amino-α,α,-2-trimethyl-1H-imidazo[4,5-c]quinoline-1-ethanol]
[1]; [8]
  % Inhibition: 13%
  EPO Concentration in the Lung (χ ± SE): 0.2620 ± 0.116
[1]; aerosol inhalation, 0.01 mg/kg
  % Inhibition: 44%
  EPO Concentration in the Lung (χ ± SE): 0.1806 ± 0.035
[1]; aerosol inhalation, 15 minutes prior to challenge
  dose capable of inhibiting ovalbumin-induced eosinophilia in the lung: 0.01 mg/kg
[1]; [9]
  % Inhibition: 28%
  EPO Concentration in the Lung (χ ± SE): 0.2435 ± 0.0515
[1]; [10]
  % Inhibition: 54%
  EPO Concentration in the Lung (χ ± SE): 0.1690 ± 0.053
[1]; [11]
  % Inhibition: 54%
  EPO Concentration in the Lung (χ ± SE): 0.1693 ± 0.060
[1]; [12]
  % Inhibition: 92%
  EPO Concentration in the Lung (χ ± SE): 0.0580 ± 0.018
[1]; intraperitoneal administration, 15 minutes prior to challenge
  dose capable of inhibiting ovalbumin-induced eosinophilia in the lung: 0.01 mg/kg
[1]
  maximum inhibition of ovalbumin-induced eosinophilia: 92%
[2]; [13]
  % Inhibition: 0%
  EPO Concentration in the Lung (χ ± SE): 0.7107 ± 0.129
[2]; [14]
  % Inhibition: 9%
  EPO Concentration in the Lung (χ ± SE): 0.5030 ± 0.089
[2]; [15]
  % Inhibition: 44%
  EPO Concentration in the Lung (χ ± SE): 0.3440 ± 0.201
[2]; [16]
  % Inhibition: 77%
  EPO Concentration in the Lung (χ ± SE): 0.1967 ± 0.080
[2]; intratracheal instillation
  dose capable of inhibiting sephadex-induced eosinophilia in the lung: ≥ 0.7 mg/kg
[2]
  maximum inhibition of sephadex-induced eosinophilia: 95%
[2]; oral administration, 0.1 mg/kg
  % Inhibition: 0%
  EPO Concentration in the Lung (χ ± SE): 0.4240 ± 0.138
[2]; oral administration, 0.7 mg/kg
  % Inhibition: 64%
  EPO Concentration in the Lung (χ ± SE): 0.1497 ± 0.030
[2]; oral administration, 1.0 mg/kg
  % Inhibition: 87%
  EPO Concentration in the Lung (χ ± SE): 0.0780 ± 0.039
[2]; oral administration, 5.0 mg/kg
  % Inhibition: 87%
  EPO Concentration in the Lung (χ ± SE): 0.0790 ± 0.030
[2]; [17]
  % Inhibition: 95%
  EPO Concentration in the Lung (χ ± SE): 0.0550 ± 0.013
[2]; oral administration
  dose capable of inhibiting sephadex-induced eosinophilia in the lung: ≥ 0.7 mg/kg

## CCOCc1nc2c(N)nc3ccccc3c2n1CC(C)(C)O [Cmpd 2, 4-amino-2-ethoxymethyl-α,α-dimethyl-1H-imidazo[4,5-c]quinoline-1-ethanol]
[1]
  maximum inhibition of ovalbumin-induced eosinophilia: 96%
[1]; [18]
  % Inhibition: 19%
  EPO Concentration in the Lung (χ ± SE): 0.1862 ± 0.030
[1]; [19]
  % Inhibition: 49%
  EPO Concentration in the Lung (χ ± SE): 0.1181 ± 0.020
[1]; oral administration, 0.1 mg/kg
  % Inhibition: 95%
  EPO Concentration in the Lung (χ ± SE): 0.0118 ± 0.005
[1]; oral administration, 1.0 mg/kg
  % Inhibition: 96%
  EPO Concentration in the Lung (χ ± SE): 0.0084 ± 0.005
[1]; oral administration, 60 minutes prior to challenge
  dose capable of inhibiting ovalbumin-induced eosinophilia in the lung: 0.01 mg/kg
[3]; doses as low as 0.01 mg/kg po
  inhibition of IL-5 production: at least 65%
[3]; free-base po 0.01 mg/kg
  −24 hr IL-5: 78 pg/mL
  0 hr IL-5: 96 pg/mL
[3]; free-base po 0.1 mg/kg
  −24 hr IL-5: 49 pg/mL
  0 hr IL-5: 62 pg/mL
[3]; free-base po 1.0 mg/kg
  −24 hr IL-5: 38 pg/mL
  0 hr IL-5: 40 pg/mL
[3]; free-base po 10.0 mg/kg
  −24 hr IL-5: 8 pg/mL
  0 hr IL-5: 29 pg/mL
[4]; OVA 100 μg/ml + IRM Compound 0.01 μg/ml, mean ±SEM
  IL-5 Concentration: 125 ± 46 pg/mL
[4]; OVA 100 μg/ml + IRM Compound 0.1 μg/ml, mean ±SEM
  IL-5 Concentration: 25 ± 8 pg/mL
[4]; OVA 100 μg/ml + IRM Compound 1 μg/ml, mean ±SEM
  IL-5 Concentration: 22 ± 3 pg/mL
[4]; OVA 100 μg/ml + IRM Compound 10 μg/ml, mean of triplicate cultures ±SEM
  IL-5 Concentration: 12 ± 2 pg/mL
[4]; concentrations as low as 0.01 μg/ml
  inhibition of IL-5 production: greater than 60%
[4]; higher concentrations (above 0.01 μg/ml)
  inhibition of IL-5 production: 100%
[5]
  EPO Concentration in Lung: 352 ± 30 ABS
  inhibition of antigen-induced eosinophilia in the lung (value in parentheses): 78%
[6]
  IL-4 Concentration in BAL: 53 ± 8 pg/mL
  reduction of BAL IL-4 concentration (value in parentheses): 43%
[6]; listed as IRM Compound
  reduction of BAL IL-4 concentration (value in parentheses): 42%
[7]
  IL-5 Concentration in BAL: 13 ± 2 pg/mL
  reduction of BAL IL-5 concentration (value in parentheses): 78%
[2]
  maximum inhibition of sephadex-induced eosinophilia: 87%
[2]; [18]
  % Inhibition: 0%
  EPO Concentration in the Lung (χ ± SE): 0.6775 ± 0.140
[2]; [19]
  % Inhibition: 32%
  EPO Concentration in the Lung (χ ± SE): 0.4908 ± 0.070
[2]; oral administration, 0.1 mg/kg
  % Inhibition: 84%
  EPO Concentration in the Lung (χ ± SE): 0.2000 ± 0.060
[2]; oral administration, 1.0 mg/kg
  % Inhibition: 87%
  EPO Concentration in the Lung (χ ± SE): 0.1824 ± 0.060
[2]; oral administration
  dose capable of inhibiting sephadex-induced eosinophilia in the lung: ≥ 0.01 mg/kg
